Among the data in US20240025884A1 (Dong-A ST Co., Ltd., priority 2022, published 2024) are IC50 values, retold here.

pIC50: −log10 of the molar value. Some results are limits rather than exact numbers.

For this assay, the target named is GCN2 (Homo sapiens (Human), UniProt Q9P2K8). In words: GCN2 Biochemical Assay (TR-FRET, GFP-eIF2S1 substrate phosphorylation). Particulars: read-out: IC50 (GCN2 Inhibitory Activity). The method, boiled down: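 TR-FRET readout (Ex 340, Em 490/520 nm) after 2–3 h with Tb-labelled phospho-eIF2S1 antibody in stop mix, following a 70 min room-temperature kinase step. Reaction: in-house GCN2, GFP-eIF2S1, ATP, tRNA in Tris pH 7.5 (2× stocks 1.6 nM, 50 nM, 0.2 mM); compounds tested at 10 concentrations, with a phospho-substrate artifact counter-plate.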
Chain of GCN2 (Q9P2K8 whole entry): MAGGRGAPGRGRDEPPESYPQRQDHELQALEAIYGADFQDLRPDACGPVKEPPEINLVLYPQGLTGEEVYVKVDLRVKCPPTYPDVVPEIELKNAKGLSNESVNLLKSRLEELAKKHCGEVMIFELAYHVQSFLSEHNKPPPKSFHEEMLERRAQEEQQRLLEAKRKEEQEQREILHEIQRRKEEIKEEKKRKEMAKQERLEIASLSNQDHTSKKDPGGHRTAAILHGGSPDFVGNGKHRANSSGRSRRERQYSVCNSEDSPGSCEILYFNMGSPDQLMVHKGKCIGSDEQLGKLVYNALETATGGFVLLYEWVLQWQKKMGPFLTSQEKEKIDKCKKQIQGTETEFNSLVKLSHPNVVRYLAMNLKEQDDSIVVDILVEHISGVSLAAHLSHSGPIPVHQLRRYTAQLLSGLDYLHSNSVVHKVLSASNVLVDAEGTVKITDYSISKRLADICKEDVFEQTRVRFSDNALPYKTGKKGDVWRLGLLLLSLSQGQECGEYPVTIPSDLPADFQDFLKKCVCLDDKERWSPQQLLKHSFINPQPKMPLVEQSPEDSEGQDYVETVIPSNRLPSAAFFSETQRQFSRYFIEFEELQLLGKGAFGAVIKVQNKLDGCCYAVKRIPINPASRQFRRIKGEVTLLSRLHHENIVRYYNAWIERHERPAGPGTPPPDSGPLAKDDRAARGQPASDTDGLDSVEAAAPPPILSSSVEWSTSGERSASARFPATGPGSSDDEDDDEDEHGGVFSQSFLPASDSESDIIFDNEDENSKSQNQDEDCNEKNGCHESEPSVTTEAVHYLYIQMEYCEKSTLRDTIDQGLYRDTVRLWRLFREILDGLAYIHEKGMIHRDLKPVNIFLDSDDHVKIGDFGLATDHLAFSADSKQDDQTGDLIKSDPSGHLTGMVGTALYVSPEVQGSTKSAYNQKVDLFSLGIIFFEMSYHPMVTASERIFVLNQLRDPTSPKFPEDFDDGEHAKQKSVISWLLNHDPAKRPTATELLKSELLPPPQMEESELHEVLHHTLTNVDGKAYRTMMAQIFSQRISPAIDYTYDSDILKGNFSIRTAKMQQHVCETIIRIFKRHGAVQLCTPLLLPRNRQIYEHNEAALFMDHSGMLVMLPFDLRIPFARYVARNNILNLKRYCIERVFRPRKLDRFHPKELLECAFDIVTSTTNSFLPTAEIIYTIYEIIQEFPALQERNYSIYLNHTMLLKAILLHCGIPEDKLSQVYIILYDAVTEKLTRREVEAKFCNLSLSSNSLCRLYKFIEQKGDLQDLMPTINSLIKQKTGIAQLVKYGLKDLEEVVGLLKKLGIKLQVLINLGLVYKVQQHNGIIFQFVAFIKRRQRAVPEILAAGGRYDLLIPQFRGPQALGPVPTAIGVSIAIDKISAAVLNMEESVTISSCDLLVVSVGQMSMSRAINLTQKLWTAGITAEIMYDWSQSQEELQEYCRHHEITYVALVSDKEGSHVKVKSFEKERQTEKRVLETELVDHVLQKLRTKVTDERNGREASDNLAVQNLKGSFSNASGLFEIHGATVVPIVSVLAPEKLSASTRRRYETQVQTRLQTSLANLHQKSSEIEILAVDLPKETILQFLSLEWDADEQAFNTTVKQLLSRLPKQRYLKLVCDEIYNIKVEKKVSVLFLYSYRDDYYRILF
Consider `Cc1cnc(Nc2cc(C)n(C)n2)nc1-c1c[nH]c2c(N3Cc4c(NC(=O)c5cnco5)cccc4C3=O)cccc12` [Example 323, N-(2-(3-(2-((1,5-dimethyl-1H-pyrazol-3-yl)amino)-5-methylpyrimidin-4-yl)-1H-indol-7-yl)-1-oxoisoindolin-4-yl)oxazole-5-carboxamide], for which the negative logarithm of the IC50 (pIC50) (usually the negative decadic logarithm of the IC50, by convention in mol/L) was greater than 8.00.

Regarding `Cc1cnc(Nc2cc(C)n(C)n2)nc1-c1c[nH]c2c(NC(=O)CN3CC[C@H](Oc4cnc(N(C)C)nc4)C3)cccc12` [Example 240, (S)-N-(3-(2-((1,5-dimethyl-1H-pyrazol-3-yl)amino)-5-methylpyrimidin-4-yl)-1H-indol-7-yl)-2-(3-((2-(dimethylamino)pyrimidin-5-yl)oxy)pyrrolidin-1-yl)acetamide], the pIC50 was 7.00 to 8.00.

As for `Cc1cnc(Nc2cc(C)n(C)n2)nc1-c1c[nH]c2c(NC(=O)CN3CC[C@H](Oc4nc(N5CCOCC5)ncc4F)C3)cccc12` [Example 232, (S)-N-(3-(2-((1,5-dimethyl-1H-pyrazol-3-yl)amino)-5-methylpyrimidin-4-yl)-1H-indol-7-yl)-2-(3-((5-fluoro-2-morpholinopyrimidin-4-yl)oxy)pyrrolidin-1-yl)acetamide], the pIC50 is greater than 8.00.

Take `Cc1cnc(Nc2cc(C)n(C)n2)nc1-c1c[nH]c2c(NC(=O)CN3CC[C@H](C(=O)N4CC=CCC4)C3)cccc12` [Example 69, (S)-N-(3-(2-((1,5-dimethyl-1H-pyrazol-3-yl)amino)-5-methylpyrimidin-4-yl)-1H-indol-7-yl)-2-(3-(1,2,3,6-tetrahydropyridine-1-carbonyl)pyrrolidin-1-yl)acetamide]: the pIC50 was 7.00 to 8.00.

Regarding `Cc1cnc(Nc2cc(C)n(C)n2)nc1-c1c[nH]c2c(NC(=O)CN3CC(OCc4ccncc4)C3)cccc12` [Example 27, N-(3-(2-((1,5-dimethyl-1H-pyrazol-3-yl)amino)-5-methylpyrimidin-4-yl)-1H-indol-7-yl)-2-(3-(pyridin-4-ylmethoxy)azetidin-1-yl)acetamide], the pIC50 is 7.00 to 8.00.

Regarding `CNC(=O)c1sccc1O[C@H]1CCN(CC(=O)Nc2cccc3c(-c4nc(Nc5cc(C)n(C)n5)ncc4C)c[nH]c23)C1` [Example 110, (S)-3-((1-(2-((3-(2-((1,5-dimethyl-1H-pyrazol-3-yl)amino)-5-methylpyrimidin-4-yl)-1H-indol-7-yl)amino)-2-oxoethyl)pyrrolidin-3-yl)oxy)-N-methylthiophene-2-carboxamide], the pIC50 was greater than 8.00.

Turning to `Cc1cnc(Nc2cc(C)n(C)n2)nc1-c1c[nH]c2c(N3Cc4c(cccc4-c4ccccc4CO)C3=O)cccc12` [Example 437, 2-(3-(2-((1,5-dimethyl-1H-pyrazol-3-yl)amino)-5-methylpyrimidin-4-yl)-1H-indol-7-yl)-4-(2-(hydroxymethyl)phenyl)isoindolin-1-one], the negative logarithm of the IC50 (pIC50) was greater than 8.00.

Consider `Cc1cnc(Nc2cc(C)n(C)n2)nc1-c1c[nH]c2c(N3Cc4c(cccc4-c4ccc(C#N)cc4F)C3=O)cccc12` [Example 433, 4-(2-(3-(2-((1,5-dimethyl-1H-pyrazol-3-yl)amino)-5-methylpyrimidin-4-yl)-1H-indol-7-yl)-1-oxoisoindolin-4-yl)-3-fluorobenzonitrile], for which the pIC50 was 7.00 to 8.00.

As to `Cc1cnc(Nc2cc(C)n(C)n2)nc1-c1c[nH]c2c(NC(=O)CN3CC[C@H](Oc4nccc(N5CCCCC5)n4)C3)cccc12` [Example 174, (S)-N-(3-(2-((1,5-dimethyl-1H-pyrazol-3-yl)amino)-5-methylpyrimidin-4-yl)-1H-indol-7-yl)-2-(3-((4-(piperidin-1-yl)pyrimidin-2-yl)oxy)pyrrolidin-1-yl)acetamide], the pIC50 was greater than 8.00.

For `CCCNC(=O)/C=C/c1cccc2c1CN(c1cccc3c(-c4nc(Nc5cc(C)n(C)n5)ncc4C)c[nH]c13)C2=O` [Example 373, (E)-3-(2-(3-(2-((1,5-dimethyl-1H-pyrazol-3-yl)amino)-5-methylpyrimidin-4-yl)-1H-indol-7-yl)-1-oxoisoindolin-4-yl)-N-propylacrylamide], the pIC50 was greater than 8.00.

As for `Cc1cnc(Nc2cc(C)n(C)n2)nc1-c1c[nH]c2c(NC(=O)CN3CC[C@H](Oc4cc(NCCO)ncn4)C3)cccc12` [Example 145, (S)-N-(3-(2-((1,5-dimethyl-1H-pyrazol-3-yl)amino)-5-methylpyrimidin-4-yl)-1H-indol-7-yl)-2-(3-((6-((2-hydroxyethyl)amino)pyrimidin-4-yl)oxy)pyrrolidin-1-yl)acetamide], the pIC50 was greater than 8.00.

Turning to `Cc1cnc(Nc2cc(C)n(C)n2)nc1-c1c[nH]c2c(NC(=O)CN3CC[C@H](Oc4cc(-c5ccccc5)ncn4)C3)cccc12` [Example 248, (S)-N-(3-(2-((1,5-dimethyl-1H-pyrazol-3-yl)amino)-5-methylpyrimidin-4-yl)-1H-indol-7-yl)-2-(3-((6-phenylpyrimidin-4-yl)oxy)pyrrolidin-1-yl)acetamide], the pIC50 is 7.00 to 8.00.

For the compound `Cc1cnc(Nc2cc(C)n(C)n2)nc1-c1c[nH]c2c(N3Cc4c(cccc4-c4cccnc4)C3=O)cccc12` [Example 388, 2-(3-(2-((1,5-dimethyl-1H-pyrazol-3-yl)amino)-5-methylpyrimidin-4-yl)-1H-indol-7-yl)-4-(pyridin-3-yl)isoindolin-1-one], the pIC50 is greater than 8.00.

For `Cc1cnc(Nc2cc(C)n(C)n2)nc1-c1c[nH]c2c(NC(=O)CN3CC[C@H](Oc4ccc(F)cc4F)C3)cccc12` [Example 83, (S)-2-(3-(2,4-difluorophenoxy)pyrrolidin-1-yl)-N-(3-(2-((1,5-dimethyl-1H-pyrazol-3-yl)amino)-5-methylpyrimidin-4-yl)-1H-indol-7-yl)acetamide], the negative logarithm of the IC50 (pIC50) was 7.00 to 8.00.

As to `Cc1cc(S(=O)(=O)Nc2cccc3c2CN(c2cccc4c(-c5nc(Nc6cc(C)n(C)n6)ncc5C)c[nH]c24)C3=O)ccc1F` [Example 345, N-(2-(3-(2-((1,5-dimethyl-1H-pyrazol-3-yl)amino)-5-methylpyrimidin-4-yl)-1H-indol-7-yl)-1-oxoisoindolin-4-yl)-4-fluoro-3-methylbenzenesulfonamide], the pIC50 was 7.00 to 8.00.

On to `Cc1cnc(Nc2cc(C)n(C)n2)nc1-c1c[nH]c2c(N3Cc4c(NC(=O)C5Cc6ccccc6C5)cccc4C3=O)cccc12` [Example 314, N-(2-(3-(2-((1,5-dimethyl-1H-pyrazol-3-yl)amino)-5-methylpyrimidin-4-yl)-1H-indol-7-yl)-1-oxoisoindolin-4-yl)-2,3-dihydro-1H-indene-2-carboxamide], for which the pIC50 is 7.00 to 8.00.

Consider `Cc1cnc(Nc2cc(C)n(C)n2)nc1-c1c[nH]c2c(N3Cc4c(cccc4-c4ccc(N)cc4)C3=O)cccc12` [Example 396, 4-(4-aminophenyl)-2-(3-(2-((1,5-dimethyl-1H-pyrazol-3-yl)amino)-5-methylpyrimidin-4-yl)-1H-indol-7-yl)isoindolin-1-one], for which the pIC50 is greater than 8.00.

Turning to `Cc1cnc(Nc2cc(C)n(C)n2)nc1-c1c[nH]c2c(NC(=O)CN3CC[C@H](Oc4ccnc(NC5CC5)n4)C3)cc(N)cc12` [Example 2, (S)-N-(5-amino-3-(2-((1,5-dimethyl-1H-pyrazol-3-yl)amino)-5-methylpyrimidin-4-yl)-1H-indol-7-yl)-2-(3-((2-(cyclopropylamino)pyrimidin-4-yl)oxy)pyrrolidin-1-yl)acetamide], the pIC50 was 7.00 to 8.00.

Regarding `Cc1cnc(Nc2cc(C)n(C)n2)nc1-c1c[nH]c2c(N3Cc4c(cccc4-c4ccc(N(C)C)cc4)C3=O)cccc12` [Example 436, 2-(3-(2-((1,5-dimethyl-1H-pyrazol-3-yl)amino)-5-methylpyrimidin-4-yl)-1H-indol-7-yl)-4-(4-(dimethylamino)phenyl)isoindolin-1-one], the pIC50 was 7.00 to 8.00.

In the case of `Cc1cnc(Nc2cc(C)n(C)n2)nc1-c1c[nH]c2c(N3Cc4cccc(-c5ccccc5)c4C3=O)cccc12` [Example 382, 2-(3-(2-((1,5-dimethyl-1H-pyrazol-3-yl)amino)-5-methylpyrimidin-4-yl)-1H-indol-7-yl)-7-phenylisoindolin-1-one], the pIC50 is 7.00 to 8.00.

As to `Cc1cnc(Nc2cc(C)n(C)n2)nc1-c1c[nH]c2c(NC(=O)CN3CC[C@H](Oc4ncnc(N(C)C)n4)C3)cccc12` [Example 136, (S)-N-(3-(2-((1,5-dimethyl-1H-pyrazol-3-yl)amino)-5-methylpyrimidin-4-yl)-1H-indol-7-yl)-2-(3-((4-(dimethylamino)-1,3,5-triazin-2-yl)oxy)pyrrolidin-1-yl)acetamide], the pIC50 was greater than 8.00.

For `COCCNc1cc(O[C@H]2CCN(CC(=O)Nc3cccc4c(-c5nc(Nc6cc(C)n(C)n6)ncc5C)c[nH]c34)C2)ncn1` [Example 147, (S)-N-(3-(2-((1,5-dimethyl-1H-pyrazol-3-yl)amino)-5-methylpyrimidin-4-yl)-1H-indol-7-yl)-2-(3-((6-((2-methoxyethyl)amino)pyrimidin-4-yl)oxy)pyrrolidin-1-yl)acetamide], the negative logarithm of the IC50 (pIC50) is greater than 8.00.

Take `Cc1cnc(Nc2cc(C)n(C)n2)nc1-c1c[nH]c2c(NC(=O)CN3CC[C@H](Oc4cc(N5CCC(O)C5)ncn4)C3)cccc12` (stereo partly drawn) [Example 159, N-(3-(2-((1,5-dimethyl-1H-pyrazol-3-yl)amino)-5-methylpyrimidin-4-yl)-1H-indol-7-yl)-2-((3S)-3-((6-(3-hydroxypyrrolidin-1-yl)pyrimidin-4-yl)oxy)pyrrolidin-1-yl)acetamide]: the pIC50 is greater than 8.00.

Take `CNc1ccc(-c2ccncc2)c2c1C(=O)N(c1cccc3c(-c4nc(Nc5cc(C)n(C)n5)ncc4C)c[nH]c13)C2` [Example 491, 2-(3-(2-((1,5-dimethyl-1H-pyrazol-3-yl)amino)-5-methylpyrimidin-4-yl)-1H-indol-7-yl)-7-(methylamino)-4-(pyridin-4-yl)isoindolin-1-one]: the pIC50 was 6.00 to 7.00.

Take `Cc1cnc(Nc2cc(C)n(C)n2)nc1-c1c[nH]c2c(NC(=O)CN3CC[C@H](Oc4cnc(N5CCN(C)CC5)nc4)C3)cccc12` [Example 242, (S)-N-(3-(2-((1,5-dimethyl-1H-pyrazol-3-yl)amino)-5-methylpyrimidin-4-yl)-1H-indol-7-yl)-2-(3-((2-(4-methylpiperazin-1-yl)pyrimidin-5-yl)oxy)pyrrolidin-1-yl)acetamide]: the pIC50 is 7.00 to 8.00.
